Assays:
[1] = test system: HCC1806-XRCC1 KD (knock down) cells; experiment: Cellular viability assay (Cell Titer-Glo); assay type: cell-based; conditions: 96 h, HCC1806-shXRCC1 cells, 4 days of incubation, read-out: PARGi cell viability
Procedure: HCC1806-XRCC1 KD (knock down) cells were plated at 2000 cells/well in 96-well white plates with clear flat bottom. After 24 hours, the compounds of the disclosure were added starting at 30 μM for a 9-point dose response curve at 1:3 dilution. The compounds of the disclosure were added by Tecan digital dispenser excluding the outermost wells of the plate. All treatments were done in duplicates. After 4 days of incubation, 50 ul of Cell Titer-Glo (Promega) was added per well. After incubation with the reagent for 15 minutes, luminescence was read using a plate reader (TECAN). Average values of DMSO treated wells in a plate was calculated. All data points were normalized to that of the average DMSO value. The % of control for each sample compared to DMSO treated control samples. Curves are fit as % of control vs. log [compound concentration] using a 4 parameter inhibition model (Levenberg-Marquardt algorithm):
Fit=(A+((B−A)/(1+((C/x)^D))))

PARG [2] = target: T1, PARG (Homo sapiens, UniProt Q86W56); experiment: Inhibition of PARG enzymatic assay (TR-FRET enzymatic IC50 assay); assay type: biochemical; parameters: purchased Peak Proteins; conditions: hPARG 250 pM, biotinylated-PARylated PARP substrate 30 nM
Summary of the method: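 Compound preincubated 1 h with 250 pM His-tagged hPARG, then 30 nM biotinylated PARylated hPARP1 substrate added for 10 min; buffer 50 mM Tris-HCl pH 7.4, EDTA/EGTA, 1 mM DTT, 23° C. TR-FRET read after 1 h with anti-His ULight antibody and streptavidin-europium; inhibition scaled between DMSO and no-enzyme controls.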

PARG [3] = target: T1, PARG; experiment: Inhibition of PARG cellular assay (PAR foci in HeLa cells after MMS); assay type: cell-based; parameters: endogenous in cells; host or cells: HeLa; conditions: compound 1 h then MMS 1 h
Summary of the method: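 HeLa cells pretreated with compound for 1 h, then given MMS for a further 1 h, fixed and immunostained for PAR polymer. High-content imaging quantified nuclear PAR foci intensity (PAR Foci IC50) and percent cells with foci signal >1.3 (PAR % positive IC50).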

T1 sequence (Q86W56 whole entry): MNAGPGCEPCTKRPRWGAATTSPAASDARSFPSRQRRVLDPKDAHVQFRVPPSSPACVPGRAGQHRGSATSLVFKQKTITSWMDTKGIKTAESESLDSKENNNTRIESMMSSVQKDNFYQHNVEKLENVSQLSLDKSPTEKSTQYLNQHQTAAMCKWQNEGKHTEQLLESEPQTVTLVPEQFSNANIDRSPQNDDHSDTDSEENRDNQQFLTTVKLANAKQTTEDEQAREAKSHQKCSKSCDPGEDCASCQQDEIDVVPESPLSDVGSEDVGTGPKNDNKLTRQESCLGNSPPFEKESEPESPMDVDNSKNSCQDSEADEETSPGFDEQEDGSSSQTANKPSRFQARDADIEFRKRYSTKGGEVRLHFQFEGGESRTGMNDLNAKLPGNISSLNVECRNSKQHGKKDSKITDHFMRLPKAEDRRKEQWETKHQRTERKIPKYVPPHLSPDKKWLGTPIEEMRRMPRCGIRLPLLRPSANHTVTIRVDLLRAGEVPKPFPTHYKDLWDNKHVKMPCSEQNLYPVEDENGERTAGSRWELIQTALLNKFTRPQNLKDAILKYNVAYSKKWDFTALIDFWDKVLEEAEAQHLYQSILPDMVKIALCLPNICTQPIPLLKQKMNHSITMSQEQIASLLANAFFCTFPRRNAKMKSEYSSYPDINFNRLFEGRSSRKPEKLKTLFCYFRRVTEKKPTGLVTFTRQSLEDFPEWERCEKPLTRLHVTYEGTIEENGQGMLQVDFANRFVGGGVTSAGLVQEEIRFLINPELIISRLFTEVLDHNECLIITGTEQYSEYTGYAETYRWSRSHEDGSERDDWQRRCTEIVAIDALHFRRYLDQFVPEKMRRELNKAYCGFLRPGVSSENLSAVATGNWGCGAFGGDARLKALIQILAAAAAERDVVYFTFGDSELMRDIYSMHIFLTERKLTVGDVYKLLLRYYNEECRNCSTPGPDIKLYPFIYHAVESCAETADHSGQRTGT

SMILES | IC50 [1] | IC50 (PARG [2]) | IC50 (PARG [3])
N#CC1(NS(=O)(=O)c2cc(N3CCC(O)CC3)c3cnn(-c4nnc(C(F)F)s4)c3c2)CC1 [Example 27, 1-[({1-[5-(difluoromethyl)(1,3,4-thiadiazol-2-yl)]-4-(4-hydroxypiperidyl)-1H-indazol-6-yl}sulfonyl)amino]cyclopropanecarbonitrile] | 1000 to 10000 nM | ≤ 100 nM | 300 to 1000 nM
CC(C)C(=O)N1CCN(c2cc(S(=O)(=O)NC3(C#N)CC3)cc3c2ccn3-c2nnc(C(F)F)s2)CC1 [Example 28, 1-[({1-[5-(difluoromethyl)(1,3,4-thiadiazol-2-yl)]-4-[4-(2-methylpropanoyl)piperazinyl]indol-6-yl}sulfonyl)amino]cyclopropanecarbonitrile] | < 1000 nM | ≤ 100 nM | ≤ 100 nM
CCN(C)C(=O)N1CCN(c2cc(S(=O)(=O)NC3(C#N)CC3)cc3c2cnn3-c2nnc(C(F)F)s2)CC1 [Example 32, [4-(1-[5-(difluoromethyl)(1,3,4-thiadiazol-2-yl)]-6-{[(cyanocyclopropyl)amino]sulfonyl}(1H-indazol-4-yl))piperazinyl]-N-ethyl-N-methylcarboxamide] | < 1000 nM | ≤ 100 nM | ≤ 100 nM
N#CC1(NS(=O)(=O)c2cc(N3CCN(C(=O)N4CCC4)CC3)c3cnn(-c4nnc(C(F)F)s4)c3c2)CC1 [Example 33, 1-[({4-[4-(azetidinylcarbonyl)piperazinyl]-1-[5-(difluoromethyl)(1,3,4-thiadiazol-2-yl)]-1H-indazol-6-yl}sulfonyl)amino]cyclopropanecarbonitrile] | 1000 to 10000 nM | ≤ 100 nM | ≤ 100 nM
C[C@@H]1CN(c2cc(S(=O)(=O)NC3(C#N)CC3)cc3c2cnn3-c2nnc(C(F)F)s2)CCN1C(=O)N(C)C [Example 35, [(2R)-4-(1-[5-(difluoromethyl)(1,3,4-thiadiazol-2-yl)]-6-{[(cyanocyclopropyl)amino]sulfonyl}(1H-indazol-4-yl))-2-methylpiperazinyl]-N,N-dimethylcarboxamide] | < 1000 nM | ≤ 100 nM | ≤ 100 nM
CC(C)C(=O)N1CCN(c2cc(S(=O)(=O)NC3(C#N)CC3)cc3c2cnn3-c2nnc(C(F)F)s2)CC1 [Example 38, 1-[({1-[5-(difluoromethyl)(1,3,4-thiadiazol-2-yl)]-4-[4-(2-methylpropanoyl)piperazinyl]-1H-indazol-6-yl}sulfonyl)amino]cyclopropanecarbonitrile] | < 1000 nM | ≤ 100 nM | ≤ 100 nM
CC(C)(C)C(=O)N1CCN(c2cc(S(=O)(=O)NC3(C#N)CC3)cc3c2cnn3-c2nnc(C(F)F)s2)CC1 [Example 39, 1-[({1-[5-(difluoromethyl)(1,3,4-thiadiazol-2-yl)]-4-[4-(2,2-dimethylpropanoyl)piperazinyl]-1H-indazol-6-yl}sulfonyl)amino]cyclopropanecarbonitrile] | < 1000 nM | ≤ 100 nM | ≤ 100 nM
CNC(=O)C1CCN(c2cc(S(=O)(=O)NC3(C#N)CC3)cc3c2cnn3-c2nnc(C(F)F)s2)CC1 [Example 40, [1-(1-[5-(difluoromethyl)(1,3,4-thiadiazol-2-yl)]-6-{[(cyanocyclopropyl)amino]sulfonyl}(1H-indazol-4-yl))(4-piperidyl)]-N-methylcarboxamide] | 10000 to 20000 nM | ≤ 100 nM | 1000 to 10000 nM
N#CC1(NS(=O)(=O)c2cc(N3CCC4(CCO4)CC3)c3cnn(-c4nnc(C(F)F)s4)c3c2)CC1 [Example 41, 1-[({1-[5-(difluoromethyl)(1,3,4-thiadiazol-2-yl)]-4-(1-oxa-7-azaspiro[3.5]non-7-yl)-1H-indazol-6-yl}sulfonyl)amino]cyclopropanecarbonitrile] | 1000 to 10000 nM | 100 to 300 nM | 300 to 1000 nM
CN(C)C(=O)N1CCN(c2cc(S(=O)(=O)NC3(C#N)CC3)cc3c2cnn3-c2nnc(C(F)F)s2)CC1 [Example 43, [4-(1-[5-(difluoromethyl)(1,3,4-thiadiazol-2-yl)]-6-{[(cyanocyclopropyl)amino]sulfonyl}(1H-indazol-4-yl))piperazinyl]-N,N-dimethylcarboxamide] | < 1000 nM | ≤ 100 nM | ≤ 100 nM
N#CC1(NS(=O)(=O)c2cc(N3CCC4(CCCO4)CC3)c3cnn(-c4nnc(C(F)F)s4)c3c2)CC1 [Example 44, 1-[({1-[5-(difluoromethyl)(1,3,4-thiadiazol-2-yl)]-4-(1-oxa-8-azaspiro[4.5]dec-8-yl)-1H-indazol-6-yl}sulfonyl)amino]cyclopropanecarbonitrile] | 1000 to 10000 nM | 300 to 1000 nM | 1000 to 10000 nM
N#CC1(NS(=O)(=O)c2cc(N3CC4(COC4)C3)c3cnn(-c4nnc(C(F)F)s4)c3c2)CC1 [Example 45, 1-[({1-[5-(difluoromethyl)(1,3,4-thiadiazol-2-yl)]-4-(6-oxa-2-azaspiro[3.3]hept-2-yl)-1H-indazol-6-yl}sulfonyl)amino]cyclopropanecarbonitrile] | 20000 to 30000 nM | 100 to 300 nM | 300 to 1000 nM
CN1CCC2(CCN(c3cc(S(=O)(=O)NC4(C#N)CC4)cc4c3cnn4-c3nnc(C(F)F)s3)CC2)C1 [Example 46, 1-[({1-[5-(difluoromethyl)(1,3,4-thiadiazol-2-yl)]-4-(2-methyl-2,8-diazaspiro[4.5]dec-8-yl)-1H-indazol-6-yl}sulfonyl)amino]cyclopropanecarbonitrile] | 1000 to 10000 nM | 100 to 300 nM | 1000 to 10000 nM
N#CC1(NS(=O)(=O)c2cc(N3CCC(CO)CC3)c3cnn(-c4nnc(C(F)F)s4)c3c2)CC1 [Example 47, 1-[({1-[5-(difluoromethyl)(1,3,4-thiadiazol-2-yl)]-4-[4-(hydroxymethyl)piperidyl]-1H-indazol-6-yl}sulfonyl)amino]cyclopropanecarbonitrile] | 1000 to 10000 nM | ≤ 100 nM | 300 to 1000 nM
N#CC1(NS(=O)(=O)c2cc(N3C[C@H]4COC[C@H]4C3)c3cnn(-c4nnc(C(F)F)s4)c3c2)CC1 [Example 48, 1-[({4-((1S,5R)-7-oxa-3-azabicyclo[3.3.0]oct-3-yl)-1-[5-(difluoromethyl)(1,3,4-thiadiazol-2-yl)]-1H-indazol-6-yl}sulfonyl)amino]cyclopropanecarbonitrile] | 1000 to 10000 nM | 100 to 300 nM | 300 to 1000 nM
CC(=O)N1CCN(c2cc(S(=O)(=O)NC3(C#N)CC3)cc3c2cnn3-c2nnc(C(F)F)s2)CC1 [Example 50, 1-[({4-(4-acetylpiperazinyl)-1-[5-(difluoromethyl)(1,3,4-thiadiazol-2-yl)]-1H-indazol-6-yl}sulfonyl)amino]cyclopropanecarbonitrile] | 1000 to 10000 nM | ≤ 100 nM | 300 to 1000 nM
CN(C)C(=O)C1CCN(c2cc(S(=O)(=O)NC3(C#N)CC3)cc3c2cnn3-c2nnc(C(F)F)s2)CC1 [Example 51, [1-(1-[5-(difluoromethyl)(1,3,4-thiadiazol-2-yl)]-6-{[(cyanocyclopropyl)amino]sulfonyl}(1H-indazol-4-yl))(4-piperidyl)]-N,N-dimethylcarboxamide] | 10000 to 20000 nM | 100 to 300 nM | 300 to 1000 nM
N#CC1(NS(=O)(=O)c2cc(N3CCS(=O)(=O)CC3)c3cnn(-c4nnc(C(F)F)s4)c3c2)CC1 [Example 52, N-(1-cyanocyclopropyl)-1-(5-(difluoromethyl)-1,3,4-thiadiazol-2-yl)-4-(1,1-dioxidothiomorpholino)-1H-indazole-6-sulfonamide] | 1000 to 10000 nM | ≤ 100 nM | 300 to 1000 nM
N#CC1(NS(=O)(=O)c2cc(N3CCN(C(=O)N4CCCC4)CC3)c3cnn(-c4nnc(C(F)F)s4)c3c2)CC1 [Example 57, 1-[({1-[5-(difluoromethyl)(1,3,4-thiadiazol-2-yl)]-4-[4-(pyrrolidinylcarbonyl)-piperazinyl]-1H-indazol-6-yl}sulfonyl)amino]cyclopropanecarbonitrile] | < 1000 nM | ≤ 100 nM | ≤ 100 nM
N#CC1(NS(=O)(=O)c2cc(N3CCN4C(=O)CC[C@H]4C3)c3cnn(-c4nnc(C(F)F)s4)c3c2)CC1 [Example 59, 1-[({4-((1S)-7-oxo-3,6-diazabicyclo[4.3.0]non-3-yl)-1-[5-(difluoromethyl)(1,3,4-thiadiazol-2-yl)]-1H-indazol-6-yl}sulfonyl)amino]cyclopropanecarbonitrile] | 1000 to 10000 nM | ≤ 100 nM | 300 to 1000 nM
N#CC1(NS(=O)(=O)c2cc(N3CCN4C(=O)CC[C@@H]4C3)c3cnn(-c4nnc(C(F)F)s4)c3c2)CC1 [Example 60, 1-[({4-((1R)-7-oxo-3,6-diazabicyclo[4.3.0]non-3-yl)-1-[5-(difluoromethyl)(1,3,4-thiadiazol-2-yl)]-1H-indazol-6-yl}sulfonyl)amino]cyclopropanecarbonitrile] | 1000 to 10000 nM | ≤ 100 nM | 100 to 300 nM
